Experimental data published in ChEMBL document CHEMBL5291721, “A preclinical secondary pharmacology resource illuminates target-adverse drug reaction associations of marketed drugs” (Nat Commun, 2023).

Legend:
[1] = target: T1, Alpha-2A adrenergic receptor (Homo sapiens, UniProt P08913)
T1 sequence (P08913 whole entry): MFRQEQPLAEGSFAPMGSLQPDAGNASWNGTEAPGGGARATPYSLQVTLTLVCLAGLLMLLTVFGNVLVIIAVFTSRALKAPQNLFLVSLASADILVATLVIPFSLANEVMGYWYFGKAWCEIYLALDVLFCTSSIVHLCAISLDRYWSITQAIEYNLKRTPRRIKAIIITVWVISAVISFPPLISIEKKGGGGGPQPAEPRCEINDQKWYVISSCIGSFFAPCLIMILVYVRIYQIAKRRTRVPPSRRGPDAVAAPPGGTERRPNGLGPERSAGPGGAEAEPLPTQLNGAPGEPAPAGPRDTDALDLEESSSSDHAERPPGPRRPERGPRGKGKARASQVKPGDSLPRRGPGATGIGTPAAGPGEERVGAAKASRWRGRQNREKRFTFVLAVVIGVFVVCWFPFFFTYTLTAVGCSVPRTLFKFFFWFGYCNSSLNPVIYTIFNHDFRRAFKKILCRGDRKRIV

[2] = target: T2, Muscarinic acetylcholine receptor M2 (Homo sapiens, UniProt P08172)
T2 sequence (P08172 whole entry): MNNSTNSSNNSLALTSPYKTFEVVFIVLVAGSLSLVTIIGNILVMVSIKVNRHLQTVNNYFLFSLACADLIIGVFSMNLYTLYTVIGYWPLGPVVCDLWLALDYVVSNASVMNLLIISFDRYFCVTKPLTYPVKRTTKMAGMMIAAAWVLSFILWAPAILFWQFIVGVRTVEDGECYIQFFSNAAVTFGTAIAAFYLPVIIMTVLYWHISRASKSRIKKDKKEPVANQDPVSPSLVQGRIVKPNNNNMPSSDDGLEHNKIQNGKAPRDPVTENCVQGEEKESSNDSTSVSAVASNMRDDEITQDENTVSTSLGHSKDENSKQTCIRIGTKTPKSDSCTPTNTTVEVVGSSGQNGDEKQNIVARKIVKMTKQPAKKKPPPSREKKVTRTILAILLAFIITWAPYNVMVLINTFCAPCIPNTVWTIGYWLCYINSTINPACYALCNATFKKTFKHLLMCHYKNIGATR

D(1A) dopamine receptor = D(1A) dopamine receptor (Homo sapiens, UniProt P21728)
Chain of D(1A) dopamine receptor (P21728 whole entry): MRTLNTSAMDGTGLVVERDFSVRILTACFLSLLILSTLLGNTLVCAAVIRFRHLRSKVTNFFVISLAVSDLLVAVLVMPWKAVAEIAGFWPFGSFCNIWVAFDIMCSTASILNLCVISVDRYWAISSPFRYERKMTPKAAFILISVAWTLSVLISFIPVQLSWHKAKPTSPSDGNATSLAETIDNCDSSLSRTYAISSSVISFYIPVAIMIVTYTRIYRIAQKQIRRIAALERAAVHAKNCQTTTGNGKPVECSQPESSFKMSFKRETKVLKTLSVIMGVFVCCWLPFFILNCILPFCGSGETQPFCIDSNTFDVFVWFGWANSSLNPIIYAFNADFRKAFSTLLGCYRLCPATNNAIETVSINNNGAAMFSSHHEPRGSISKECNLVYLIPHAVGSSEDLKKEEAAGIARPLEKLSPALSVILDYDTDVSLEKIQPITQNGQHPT

D(3) dopamine receptor = D(3) dopamine receptor (Homo sapiens, UniProt P35462)
Chain of D(3) dopamine receptor (P35462 whole entry): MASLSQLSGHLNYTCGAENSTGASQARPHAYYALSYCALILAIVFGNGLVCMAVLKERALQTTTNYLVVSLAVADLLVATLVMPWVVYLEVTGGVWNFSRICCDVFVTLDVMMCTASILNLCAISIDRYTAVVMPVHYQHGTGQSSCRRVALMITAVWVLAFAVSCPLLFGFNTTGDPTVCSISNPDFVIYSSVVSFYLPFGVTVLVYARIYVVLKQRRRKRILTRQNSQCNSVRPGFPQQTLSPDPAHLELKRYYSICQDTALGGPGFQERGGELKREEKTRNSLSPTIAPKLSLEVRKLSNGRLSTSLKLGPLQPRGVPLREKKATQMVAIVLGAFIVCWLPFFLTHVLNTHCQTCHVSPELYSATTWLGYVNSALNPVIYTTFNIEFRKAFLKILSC

Estrogen receptor = target: T3, Estrogen receptor (Homo sapiens, UniProt P03372)
T3 sequence (P03372 whole entry): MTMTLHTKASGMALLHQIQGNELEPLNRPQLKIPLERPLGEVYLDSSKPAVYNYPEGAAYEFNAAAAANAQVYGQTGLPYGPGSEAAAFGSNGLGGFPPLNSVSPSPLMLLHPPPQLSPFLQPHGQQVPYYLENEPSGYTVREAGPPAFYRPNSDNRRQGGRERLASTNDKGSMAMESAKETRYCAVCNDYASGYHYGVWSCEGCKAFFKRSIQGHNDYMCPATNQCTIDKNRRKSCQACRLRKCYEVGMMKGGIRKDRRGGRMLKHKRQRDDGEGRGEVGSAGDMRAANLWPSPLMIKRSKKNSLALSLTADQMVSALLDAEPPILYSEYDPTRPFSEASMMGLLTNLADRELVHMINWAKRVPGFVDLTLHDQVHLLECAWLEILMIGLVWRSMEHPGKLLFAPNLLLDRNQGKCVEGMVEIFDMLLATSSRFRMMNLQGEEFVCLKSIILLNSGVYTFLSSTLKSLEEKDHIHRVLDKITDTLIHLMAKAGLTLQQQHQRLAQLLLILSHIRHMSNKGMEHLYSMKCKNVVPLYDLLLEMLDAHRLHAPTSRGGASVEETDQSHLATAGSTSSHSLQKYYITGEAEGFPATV

Prothrombin = Prothrombin (Homo sapiens, UniProt P00734); format: functional
[3] = target: T4, 5-hydroxytryptamine receptor 1A (Homo sapiens, UniProt P08908)
T4 sequence (P08908 whole entry): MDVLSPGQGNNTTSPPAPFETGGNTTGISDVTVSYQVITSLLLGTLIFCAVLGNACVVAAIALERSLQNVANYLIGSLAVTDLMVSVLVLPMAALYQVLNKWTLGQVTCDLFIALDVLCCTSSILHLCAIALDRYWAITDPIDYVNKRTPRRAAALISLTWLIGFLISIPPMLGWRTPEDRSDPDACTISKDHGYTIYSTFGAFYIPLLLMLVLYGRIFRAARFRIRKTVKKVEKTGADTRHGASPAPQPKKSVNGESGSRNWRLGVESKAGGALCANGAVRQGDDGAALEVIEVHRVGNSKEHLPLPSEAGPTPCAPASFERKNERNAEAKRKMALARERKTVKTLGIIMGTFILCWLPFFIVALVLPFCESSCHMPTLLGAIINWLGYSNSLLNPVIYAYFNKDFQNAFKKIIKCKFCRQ

[4] = target: 5-hydroxytryptamine receptor 2B (Homo sapiens, UniProt P41595); format: functional, cell-based
[5] = target: Vascular endothelial growth factor receptor 2 (Homo sapiens, UniProt P35968); format: functional
Chain of Vascular endothelial growth factor receptor 2 (P35968 whole entry): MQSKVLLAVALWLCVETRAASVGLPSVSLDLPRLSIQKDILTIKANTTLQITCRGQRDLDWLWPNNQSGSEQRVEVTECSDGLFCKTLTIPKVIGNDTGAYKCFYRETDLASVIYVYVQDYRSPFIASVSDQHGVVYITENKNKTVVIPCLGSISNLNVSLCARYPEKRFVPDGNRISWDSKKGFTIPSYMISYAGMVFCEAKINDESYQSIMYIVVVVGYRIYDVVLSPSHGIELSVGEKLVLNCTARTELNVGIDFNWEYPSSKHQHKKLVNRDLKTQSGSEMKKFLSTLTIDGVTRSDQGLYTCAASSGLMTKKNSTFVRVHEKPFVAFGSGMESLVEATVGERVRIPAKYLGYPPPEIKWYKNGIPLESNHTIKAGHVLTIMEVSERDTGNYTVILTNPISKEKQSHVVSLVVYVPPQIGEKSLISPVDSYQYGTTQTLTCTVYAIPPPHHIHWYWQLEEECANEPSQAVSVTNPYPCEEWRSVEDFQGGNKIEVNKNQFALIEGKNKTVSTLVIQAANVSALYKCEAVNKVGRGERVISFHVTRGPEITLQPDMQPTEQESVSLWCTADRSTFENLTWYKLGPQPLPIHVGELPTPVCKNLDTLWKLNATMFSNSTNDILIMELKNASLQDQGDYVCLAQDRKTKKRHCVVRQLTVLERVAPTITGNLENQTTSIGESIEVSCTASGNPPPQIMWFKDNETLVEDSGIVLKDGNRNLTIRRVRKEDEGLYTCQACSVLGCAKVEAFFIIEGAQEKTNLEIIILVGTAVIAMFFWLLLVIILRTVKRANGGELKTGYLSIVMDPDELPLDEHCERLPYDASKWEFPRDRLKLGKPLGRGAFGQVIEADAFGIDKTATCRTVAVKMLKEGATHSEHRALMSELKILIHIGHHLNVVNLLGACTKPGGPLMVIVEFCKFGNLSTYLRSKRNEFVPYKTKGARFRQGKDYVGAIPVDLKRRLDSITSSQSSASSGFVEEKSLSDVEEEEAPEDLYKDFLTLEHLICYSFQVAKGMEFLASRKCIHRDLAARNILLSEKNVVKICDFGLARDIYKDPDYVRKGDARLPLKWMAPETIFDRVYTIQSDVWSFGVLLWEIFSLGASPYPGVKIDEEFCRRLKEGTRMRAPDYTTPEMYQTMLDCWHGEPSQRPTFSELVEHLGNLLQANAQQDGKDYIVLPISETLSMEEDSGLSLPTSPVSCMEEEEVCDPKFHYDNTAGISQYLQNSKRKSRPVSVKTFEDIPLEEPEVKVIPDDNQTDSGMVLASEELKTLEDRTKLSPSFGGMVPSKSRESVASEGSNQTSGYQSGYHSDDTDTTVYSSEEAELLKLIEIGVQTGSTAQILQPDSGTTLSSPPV

[6] = target: T5, Prostaglandin G/H synthase 1 (Homo sapiens, UniProt P23219); format: functional
T5 sequence (P23219 whole entry): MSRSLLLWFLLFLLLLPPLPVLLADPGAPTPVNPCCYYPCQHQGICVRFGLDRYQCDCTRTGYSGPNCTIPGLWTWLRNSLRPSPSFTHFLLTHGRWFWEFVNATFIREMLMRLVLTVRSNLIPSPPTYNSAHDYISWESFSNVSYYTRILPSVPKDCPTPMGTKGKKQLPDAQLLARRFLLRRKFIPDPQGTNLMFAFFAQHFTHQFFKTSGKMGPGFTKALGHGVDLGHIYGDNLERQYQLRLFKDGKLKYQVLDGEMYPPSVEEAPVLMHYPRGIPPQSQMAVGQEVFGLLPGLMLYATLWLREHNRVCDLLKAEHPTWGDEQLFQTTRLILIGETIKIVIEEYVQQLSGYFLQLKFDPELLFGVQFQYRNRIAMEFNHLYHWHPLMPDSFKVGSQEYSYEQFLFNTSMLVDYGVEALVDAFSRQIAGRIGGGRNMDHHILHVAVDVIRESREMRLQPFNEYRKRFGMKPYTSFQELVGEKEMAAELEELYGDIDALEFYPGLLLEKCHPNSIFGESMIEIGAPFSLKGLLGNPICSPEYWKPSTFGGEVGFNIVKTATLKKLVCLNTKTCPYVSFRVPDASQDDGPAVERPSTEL

[7] = target: T5, Prostaglandin G/H synthase 1; format: functional; remark: listed apart in the source
[8] = target: Sodium-dependent noradrenaline transporter (Homo sapiens, UniProt P23975)
Chain of Sodium-dependent noradrenaline transporter (P23975 whole entry): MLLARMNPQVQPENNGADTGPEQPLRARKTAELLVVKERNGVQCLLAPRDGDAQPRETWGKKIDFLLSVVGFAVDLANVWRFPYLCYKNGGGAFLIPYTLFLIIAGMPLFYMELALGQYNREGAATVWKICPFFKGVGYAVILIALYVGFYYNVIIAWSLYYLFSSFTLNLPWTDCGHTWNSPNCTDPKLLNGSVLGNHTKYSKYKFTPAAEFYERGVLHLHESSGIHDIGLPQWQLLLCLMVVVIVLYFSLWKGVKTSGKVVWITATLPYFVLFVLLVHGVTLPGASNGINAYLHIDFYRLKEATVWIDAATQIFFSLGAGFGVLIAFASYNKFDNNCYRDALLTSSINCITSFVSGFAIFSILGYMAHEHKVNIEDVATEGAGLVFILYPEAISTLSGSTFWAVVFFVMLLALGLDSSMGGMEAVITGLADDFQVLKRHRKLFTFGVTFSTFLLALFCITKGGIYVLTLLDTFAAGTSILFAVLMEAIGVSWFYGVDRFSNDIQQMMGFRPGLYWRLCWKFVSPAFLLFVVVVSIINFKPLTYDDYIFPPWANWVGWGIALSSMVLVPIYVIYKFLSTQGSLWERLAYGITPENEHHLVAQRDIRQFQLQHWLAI

[9] = target: Sodium-dependent dopamine transporter (Homo sapiens, UniProt Q01959)
Chain of Sodium-dependent dopamine transporter (Q01959 whole entry): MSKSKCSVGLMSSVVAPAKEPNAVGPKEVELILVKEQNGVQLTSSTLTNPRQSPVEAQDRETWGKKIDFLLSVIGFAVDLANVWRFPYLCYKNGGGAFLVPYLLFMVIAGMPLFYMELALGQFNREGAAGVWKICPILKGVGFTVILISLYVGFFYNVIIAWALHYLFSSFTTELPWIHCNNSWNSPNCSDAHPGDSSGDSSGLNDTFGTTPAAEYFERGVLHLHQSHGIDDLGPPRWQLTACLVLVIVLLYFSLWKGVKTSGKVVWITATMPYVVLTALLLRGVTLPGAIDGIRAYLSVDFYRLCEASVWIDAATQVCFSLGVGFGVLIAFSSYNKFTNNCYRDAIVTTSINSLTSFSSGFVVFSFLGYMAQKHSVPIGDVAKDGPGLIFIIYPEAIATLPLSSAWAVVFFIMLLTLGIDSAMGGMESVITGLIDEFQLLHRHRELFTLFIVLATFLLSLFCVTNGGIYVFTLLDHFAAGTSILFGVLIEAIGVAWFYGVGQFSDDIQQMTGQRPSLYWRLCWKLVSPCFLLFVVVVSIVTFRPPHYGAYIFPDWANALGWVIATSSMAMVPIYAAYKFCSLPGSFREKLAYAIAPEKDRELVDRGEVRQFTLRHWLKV

[10] = target: Sodium-dependent serotonin transporter (Homo sapiens, UniProt P31645)
Chain of Sodium-dependent serotonin transporter (P31645 whole entry): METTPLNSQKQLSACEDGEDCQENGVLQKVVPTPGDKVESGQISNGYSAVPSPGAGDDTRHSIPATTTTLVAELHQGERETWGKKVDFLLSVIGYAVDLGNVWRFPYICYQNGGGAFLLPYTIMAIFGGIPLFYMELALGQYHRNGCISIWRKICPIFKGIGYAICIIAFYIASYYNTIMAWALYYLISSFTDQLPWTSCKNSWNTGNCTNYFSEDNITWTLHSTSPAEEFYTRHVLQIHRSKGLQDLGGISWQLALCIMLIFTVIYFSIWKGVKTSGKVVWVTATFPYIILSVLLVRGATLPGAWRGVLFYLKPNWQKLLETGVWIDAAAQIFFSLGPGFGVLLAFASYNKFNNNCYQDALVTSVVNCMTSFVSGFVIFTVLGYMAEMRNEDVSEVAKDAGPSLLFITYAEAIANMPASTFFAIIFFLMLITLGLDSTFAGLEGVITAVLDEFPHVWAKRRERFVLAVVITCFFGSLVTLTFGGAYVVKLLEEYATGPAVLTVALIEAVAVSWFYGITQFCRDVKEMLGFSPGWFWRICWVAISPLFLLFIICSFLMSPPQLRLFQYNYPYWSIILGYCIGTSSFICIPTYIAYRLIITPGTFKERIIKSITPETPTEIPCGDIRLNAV

Thromboxane A2 receptor = target: T6, Thromboxane A2 receptor (Homo sapiens, UniProt P21731); format: functional, cell-based
T6 sequence (P21731 whole entry): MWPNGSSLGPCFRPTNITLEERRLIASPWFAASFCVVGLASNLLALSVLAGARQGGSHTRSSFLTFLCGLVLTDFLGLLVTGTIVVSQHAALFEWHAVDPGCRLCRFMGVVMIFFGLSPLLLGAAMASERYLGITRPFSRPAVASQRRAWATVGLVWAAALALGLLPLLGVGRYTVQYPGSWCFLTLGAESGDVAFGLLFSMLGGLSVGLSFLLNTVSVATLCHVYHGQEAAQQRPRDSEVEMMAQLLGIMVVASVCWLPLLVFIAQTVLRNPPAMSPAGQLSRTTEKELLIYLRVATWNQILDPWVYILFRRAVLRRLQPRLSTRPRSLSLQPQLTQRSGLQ
Further: assay procedure not described here.

Compound | AC50 [1] | AC50 [2] | AC50 (D(1A) dopamine receptor) | AC50 (D(3) dopamine receptor) | AC50 (Estrogen receptor) | AC50 (Prothrombin) | AC50 [3] | AC50 [4] | AC50 [5] | AC50 [6] | AC50 [7] | AC50 [8] | AC50 [9] | AC50 [10] | AC50 (Thromboxane A2 receptor)
CC(C)N1CCOC(c2cccc(C(F)(F)F)c2)C1 (stereo not given) [OXAFLOZANE] | > 30 µM | 23.5 µM | > 30 µM | 1.65 µM | > 30 µM | > 30 µM | 0.513 µM | 1.01 µM | > 30 µM | > 30 µM | > 30 µM | > 30 µM | > 30 µM | > 30 µM | > 30 µM
CCOc1ccc(Cc2nccc3cc(OCC)c(OCC)cc23)cc1OCC [ETHAVERINE] | 20.9 µM | > 30 µM | 8.59 µM | 25.5 µM | > 30 µM | > 30 µM | > 30 µM | > 30 µM | > 30 µM | > 30 µM | > 10 µM | > 30 µM | > 30 µM | > 30 µM | > 30 µM
CN1CCc2c(c3ccccc3n2Cc2ccccc2)C1 [MEBHYDROLIN] | 0.533 µM | 0.268 µM | 1.98 µM | 1.19 µM | > 30 µM | > 30 µM | 1.04 µM | > 30 µM | > 30 µM | > 30 µM | > 30 µM | 8.13 µM | 0.334 µM | 28.5 µM | > 30 µM
CC(NCCC(c1ccccc1)c1ccccc1)c1ccccc1 (stereo not given) [FENDILINE] | 5.89 µM | 6.17 µM | 21.7 µM | 9.87 µM | > 30 µM | > 3 µM | 14.9 µM | > 30 µM | > 30 µM | > 30 µM | > 30 µM | 3.26 µM | 3.48 µM | 7.94 µM | 20.7 µM
CC1(C)S[C@@H]2[C@H](NC(=O)[C@H](NC(=O)c3cnc4cccnc4c3O)c3ccccc3)C(=O)N2[C@H]1C(=O)O [APALCILLIN] | > 30 µM | > 30 µM | > 30 µM | > 30 µM | > 30 µM | > 30 µM | > 30 µM | > 30 µM | > 30 µM | 17.6 µM | 14.6 µM | > 30 µM | > 30 µM | > 30 µM | > 30 µM
Nc1ccc(C(=O)NCC(=O)O)cc1 [AMINOHIPPURIC ACID] | > 30 µM | > 30 µM | > 30 µM | > 30 µM | > 30 µM | > 30 µM | > 30 µM | > 30 µM | > 30 µM | > 30 µM | > 30 µM | > 30 µM | > 30 µM | > 30 µM | > 30 µM
CC(C)=CCC/C(C)=C/CC/C(C)=C/CC/C(C)=C/CC1=C(C)C(=O)c2ccccc2C1=O [MENATETRENONE] | > 10 µM | > 30 µM | > 30 µM | 2.91 µM | > 30 µM | > 30 µM | 22.5 µM | > 30 µM | > 30 µM | 13.5 µM | 0.78 µM | > 30 µM | > 30 µM | > 30 µM | > 30 µM
COC(=O)N[C@H](C(=O)N1CC2(CC2)C[C@H]1c1ncc(-c2ccc3c(c2)C(F)(F)c2cc(-c4ccc5nc([C@@H]6[C@H]7CC[C@H](C7)N6C(=O)[C@@H](NC(=O)OC)C(C)C)[nH]c5c4)ccc2-3)[nH]1)C(C)C | > 30 µM | > 30 µM | > 30 µM | > 10 µM | > 30 µM | > 30 µM | > 30 µM | > 30 µM | > 30 µM | > 30 µM | > 30 µM | > 30 µM | > 30 µM | > 30 µM | > 30 µM
